# Experimental data from article PMC7660650, “Chemical Starting Matter for HNF4α Ligand Discovery and Chemogenomics” (International Journal of Molecular Sciences, 2020).
# Target: T1, Gal4-HNF4α (human HNF4α LBD) (Homo sapiens, UniProt P41235)
# T1 construct: uniprot entry: P41235-1, residues 142-377; expressed in transfected cells; host or cells: HEK293T
# T1 sequence (P41235 142-377): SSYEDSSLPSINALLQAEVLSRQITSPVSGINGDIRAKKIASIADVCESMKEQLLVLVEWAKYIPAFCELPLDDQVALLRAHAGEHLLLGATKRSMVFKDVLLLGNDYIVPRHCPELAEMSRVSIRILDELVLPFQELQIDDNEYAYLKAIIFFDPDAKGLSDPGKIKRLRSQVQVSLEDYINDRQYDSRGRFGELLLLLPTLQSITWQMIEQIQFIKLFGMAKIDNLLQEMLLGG
# Test: Hybrid Gal4-HNF4α reporter gene assay in transiently transfected HEK293T cells
# Format: cell-based
# Details: not given
row,Structure (SMILES),HNF4a-screening_activity_(mean_of_n=2)
1,"Oc1cccc2cccnc12 [Prestw-Frag-2592, Oc1cccc2cccnc12]",0.6969
2,"c1ccc2c3c([nH]c2c1)CCCC3 [Prestw-Frag-2780, C1CCc2c(C1)[nH]c1ccccc21]",0.7267
3,"CCOc1ccccc1OCC1CNCCO1 (centres unmarked) [Prestw-Frag-2992, CCOc1ccccc1OCC1CNCCO1]",0.7878

# Same assay, conditions: Table S1, primary screening, 50 µM
row,Structure (SMILES),HNF4a-screening_activity_(mean_of_n=2)
1,"CC(=O)N(CCC(=O)O)c1ccccc1 [Prestw-Frag-2487, CC(=O)N(CCC(O)=O)c1ccccc1]",0.9613
2,"c1ccc2cnccc2c1 [Prestw-Frag-2493, c1ccc2cnccc2c1]",1.292
3,"COc1ccc(O)cc1O [Prestw-Frag-2499, COc1ccc(O)cc1O]",1.183
4,"c1cnccn1 [Prestw-Frag-2501, c1cnccn1]",1.207
5,"CC(=O)c1ccc(O)cc1O [Prestw-Frag-2506, CC(=O)c1ccc(O)cc1O]",0.9153
6,"OCc1ccc(O)cc1 [Prestw-Frag-2532, OCc1ccc(O)cc1]",1.028
7,"c1ccc(C2CCNCC2)cc1 [Prestw-Frag-2537, C1CC(CCN1)c1ccccc1]",0.9586
8,"Sc1nc2ccccc2[nH]1 [Prestw-Frag-2539, Sc1nc2ccccc2[nH]1]",1.302
9,"O=C(O)c1ccccn1 [Prestw-Frag-2541, OC(=O)c1ccccn1]",0.9518
10,"Oc1nsnc1N1CCOCC1 [Prestw-Frag-2562, Oc1nsnc1N1CCOCC1]",1.981
11,"ClC1(Cl)CC1c1ccccc1 (centres unmarked) [Prestw-Frag-2566, ClC1(Cl)CC1c1ccccc1]",1.078
12,"COc1ccccc1N1CCN(CCCN)CC1 [Prestw-Frag-2569, COc1ccccc1N1CCN(CCCN)CC1]",1.212
13,"O=C(O)CNC(=O)c1ccccc1 [Prestw-Frag-2576, OC(=O)CNC(=O)c1ccccc1]",1.001
14,"O=C(O)COc1ccccc1 [Prestw-Frag-2577, OC(=O)COc1ccccc1]",1.064
15,"NC(=O)COc1ccccc1 [Prestw-Frag-2578, NC(=O)COc1ccccc1]",1.034
16,"O=C(O)Cc1ccccc1 [Prestw-Frag-2579, OC(=O)Cc1ccccc1]",1.086
17,"NC(=O)Cc1ccccc1 [Prestw-Frag-2580, NC(=O)Cc1ccccc1]",0.9823
18,"NC(=O)c1ccncc1 [Prestw-Frag-2587, NC(=O)c1ccncc1]",0.9347
19,"Clc1cccc2ncccc12 [Prestw-Frag-2593, Clc1cccc2ncccc12]",0.9438
20,"OC1c2ccccc2CCc2ccccc21 [Prestw-Frag-2600, OC1c2ccccc2CCc2ccccc12]",0.7017
21,"c1ccc(CCn2ccnc2)cc1 [Prestw-Frag-2608, C(Cn1ccnc1)c1ccccc1]",0.9707
22,"c1ccc(Cn2ccnc2)cc1 [Prestw-Frag-2620, C(c1ccccc1)n1ccnc1]",0.9802
23,"c1ccc(C(c2ccccc2)n2cncn2)cc1 [Prestw-Frag-2645, c1ncn(n1)C(c1ccccc1)c1ccccc1]",0.9885

row,Structure (SMILES),HNF4a-screening_activity_(mean_of_n=2)
1,"N#CC1(c2ccc(F)cc2)CCCCC1 [Prestw-Frag-2647, Fc1ccc(cc1)C1(CCCCC1)C#N]",0.99
2,"CC1(c2ccccc2)NC(=O)NC1=O (centres unmarked) [Prestw-Frag-2652, CC1(NC(=O)NC1=O)c1ccccc1]",0.789
3,"Cc1ccc(C#N)c(=O)[nH]1 [Prestw-Frag-2669, Cc1ccc(C#N)c(=O)[nH]1]",0.9816
4,"O=C1CCCc2[nH]ccc21 [Prestw-Frag-2675, O=C1CCCc2[nH]ccc12]",1.012
5,"O=C(O)CCc1ncc(-c2ccccc2)o1 [Prestw-Frag-2693, OC(=O)CCc1ncc(o1)-c1ccccc1]",0.8237
6,"Cc1nc(-c2ccccc2)c(-c2ccccc2)o1 [Prestw-Frag-2695, Cc1nc(c(o1)-c1ccccc1)-c1ccccc1]",1.374
7,"COc1ccc(C(C)=O)c(O)c1 [Prestw-Frag-2701, COc1ccc(C(C)=O)c(O)c1]",1.01
8,"Oc1ccccc1C1CCCC1 [Prestw-Frag-2706, Oc1ccccc1C1CCCC1]",0.8607
9,"CN1C(=O)CCC1=O [Prestw-Frag-2713, CN1C(=O)CCC1=O]",0.9037
10,"N=C(N)NC(=N)Nc1ccc(Cl)cc1 [Prestw-Frag-2722, NC(=N)NC(=N)Nc1ccc(Cl)cc1]",0.8665
11,"CCCOc1ccc(C(=O)OCC)cc1N [Prestw-Frag-2724, CCCOc1ccc(cc1N)C(=O)OCC]",1.372
12,"CS(=O)(=O)Nc1ccccc1 [Prestw-Frag-2755, CS(=O)(=O)Nc1ccccc1]",0.9874
13,"O=c1ccn([C@@H]2C[C@H](O)[C@@H](CO)O2)c(=O)[nH]1 [Prestw-Frag-2769, OC[C@H]1O[C@@H](C[C@@H]1O)n1ccc(=O)[nH]c1=O]",0.8958
14,"CCN(CC)CCOC(=O)C1(c2ccccc2)CCCC1 [Prestw-Frag-2774, CCN(CC)CCOC(=O)C1(CCCC1)c1ccccc1]",1.226
15,"c1cc2c(cc1OC[C@H]1CCCNC1)OCO2 [Prestw-Frag-2789, C(Oc1ccc2OCOc2c1)[C@H]1CCCNC1]",1.15
16,"CCNC(=O)c1cccnc1 [Prestw-Frag-2794, CCNC(=O)c1cccnc1]",1.068
17,"COC(=O)c1c[nH]c2ccccc12 [Prestw-Frag-2799, COC(=O)c1c[nH]c2ccccc12]",0.9379
18,"OC1CCN(c2ccccc2F)CC1 [Prestw-Frag-2803, OC1CCN(CC1)c1ccccc1F]",1.103
19,"Cc1ccccc1Nc1ncccc1C(=O)O [Prestw-Frag-2806, Cc1ccccc1Nc1ncccc1C(O)=O]",1.238
20,"O=C(O)c1cccnc1Nc1cccc(Cl)c1 [Prestw-Frag-2807, OC(=O)c1cccnc1Nc1cccc(Cl)c1]",1.808
21,"NCCCOc1cccc(CN2CCCCC2)c1 [Prestw-Frag-2808, NCCCOc1cccc(CN2CCCCC2)c1]",1.297
22,"Oc1cccc(CN2CCCCC2)c1 [Prestw-Frag-2809, Oc1cccc(CN2CCCCC2)c1]",1.12
23,"CCNC(=O)c1ccc(Cl)cc1 [Prestw-Frag-2818, CCNC(=O)c1ccc(Cl)cc1]",0.8348

row,Structure (SMILES),HNF4a-screening_activity_(mean_of_n=2)
1,"Nc1cccc(O)c1 [Prestw-Frag-2826, Nc1cccc(O)c1]",1.072
2,"C[C@@H](O)c1cc(C(F)(F)F)cc(C(F)(F)F)c1 [Prestw-Frag-2849, C[C@@H](O)c1cc(cc(c1)C(F)(F)F)C(F)(F)F]",1.171
3,"Clc1cccc(N2CCNCC2)c1Cl [Prestw-Frag-2853, Clc1cccc(N2CCNCC2)c1Cl]",1.239
4,"O=C1CCc2ccc(O)cc2N1 [Prestw-Frag-2854, Oc1ccc2CCC(=O)Nc2c1]",1.013
5,"c1ccc(C(c2ccccc2)n2ccnc2)cc1 [Prestw-Frag-2868, c1cn(cn1)C(c1ccccc1)c1ccccc1]",0.7887
6,"c1ccc(-c2nnn[nH]2)cc1 [Prestw-Frag-2887, c1ccc(cc1)-c1nnn[nH]1]",0.9719
7,"Oc1cc(Cl)c(Cl)cc1Cl [Prestw-Frag-2898, Oc1cc(Cl)c(Cl)cc1Cl]",5.433
8,"O=C(c1ccccc1)c1ccc(Br)cc1 [Prestw-Frag-2912, Brc1ccc(cc1)C(=O)c1ccccc1]",0.975
9,"NCCCCN1CCN(c2ncccn2)CC1 [Prestw-Frag-2921, NCCCCN1CCN(CC1)c1ncccn1]",1.125
10,"Nc1cccc(Nc2ncccn2)c1 [Prestw-Frag-2935, Nc1cccc(Nc2ncccn2)c1]",1.004
11,"CC(C)(C)OC(=O)/C=C/c1ccccc1 [Prestw-Frag-2947, CC(C)(C)OC(=O)\C=C\c1ccccc1]",1.247
12,"c1ccc(C2CNCCO2)cc1 (centres unmarked) [Prestw-Frag-2958, C1COC(CN1)c1ccccc1]",1.039
13,"COc1ccc(CC(=O)O)cc1 [Prestw-Frag-2960, COc1ccc(CC(O)=O)cc1]",0.9108
14,"CCc1ccc(CCO)nc1 [Prestw-Frag-2968, CCc1ccc(CCO)nc1]",1.216
15,"Nc1nc2c(s1)CCCC2 [Prestw-Frag-2972, Nc1nc2CCCCc2s1]",1.123
16,"CCOc1ccccc1O [Prestw-Frag-2995, CCOc1ccccc1O]",0.8201
17,"c1ccc(-n2ccc3ccccc32)cc1 [Prestw-Frag-3011, c1cc2ccccc2n1-c1ccccc1]",0.7452
18,"CN1CCN(S(=O)(=O)c2ccccc2)CC1 [Prestw-Frag-3012, CN1CCN(CC1)S(=O)(=O)c1ccccc1]",0.8018
19,"CNS(=O)(=O)Cc1ccc2[nH]cc(CCN)c2c1 [Prestw-Frag-3017, CNS(=O)(=O)Cc1ccc2[nH]cc(CCN)c2c1]",0.7522
20,"c1ccc2nccnc2c1 [Prestw-Frag-3033, c1ccc2nccnc2c1]",0.9657
21,"O=C1c2nccnc2C(O)N1c1ccc(Cl)cn1 (centres unmarked) [Prestw-Frag-3046, OC1N(C(=O)c2nccnc12)c1ccc(Cl)cn1]",0.8017
22,"Cc1ccc(N)c(C#N)c1 [Prestw-Frag-3060, Cc1ccc(N)c(c1)C#N]",0.8715
